The test system of assay [1] is GPVI signaling (Lyn, Fyn, PLCγ2, PKC substrate p47, Akt, MAPKs). Briefly: Western blotting of GPVI signaling in collagen-stimulated platelets. It is filed as cell-based, human. Conditions: collagen 1 μg/mL. As to the method:
Western blotting was performed as described previously ([Lien et al., 2017]). Human platelet suspensions (3.6 × 10^8 cells/mL) were pretreated with compound 6 (2.5 and 5 μM) or 0.1% DMSO for 3 min and then treated with collagen for 6 min. After centrifugation, the platelet pellets were immediately resuspended in lysis buffer (200 μL) for 1 h. The supernatants were collected after centrifugation at 5,000 g for 5 min, and the protein extracts (80 μg) were subjected to 8%–12% sodium dodecylsulfate–polyacrylamide gel electrophoresis. The separated proteins were then electrotransferred onto a polyvinylidene fluoride membrane through a semidry transfer (Thermo Fisher, Waltham, MA, United States). The membrane was blocked with TBST (10 mM Tris-base, 100 mM NaCl, and 0.01% Tween-20) containing 5% B.S.A. for 1 h. After being washed three times, the membrane was incubated with various specific primary antibodies (1:1,000). Subsequently, the membrane was incubated with HRP-conjugated antibodies (1:5,000) for 1 h. Immunoreactive bands were developed using an electrochemiluminescence kit and analyzed using Celvin S (Biostep, Burkhardtsdorf, Germany).
FIGURE 5 Effects of compound 6 on the phosphorylation of Fyn, Lyn, PLCγ2, and PKC substrates (p47) induced by collagen in human platelets. (A–D) Washed platelets (3.6 × 10^8 cells/mL) were treated with compound 6 (2.5 and 5 μM) or DMSO before adding collagen (1 μg/mL). Proteins of these samples were separated by Western blotting. These targets (Fyn, Lyn, PLCγ2, and p47) were detected using specific antibodies. Data (A–D) are presented as means ± SEM (n = 5). **p < 0.01 and ***p < 0.001 compared with the resting group. #p < 0.05, ##p < 0.01, and ###p < 0.001 compared with the DMSO (solvent control) group.
FIGURE 6 Effects of compound 6 on the phosphorylation of Akt, and MAPKs induced by collagen in human platelets. Washed platelets (3.6 × 10^8 cells/mL) were treated with compound 6 (2.5 and 5 μM) or DMSO before adding collagen (1 μg/mL). […] Akt (A), p38 MAPK (B), ERK (C), and JNK (D) were detected using specific antibodies. […]

The test system of assay [2] is thrombus formation in mesenteric venules. Briefly: Fluorescein sodium-mediated thrombus formation in mesenteric microvessels of mice. It is filed as in vivo. Conditions: n = 6, mean ± SEM (DMSO 117.7 ± 12.4 s). As to the method: Male ICR mice (weighing 20–25 g and aged 5–6 weeks) were purchased from BioLasco (Taipei, Taiwan). The animal use protocol for this project was approved by the Affidavit of Approval of Animal Use Protocol–Taipei Medical University (LAC-2020–0074). All animal experiments were conducted in accordance with the Guide for the Care and Use of Laboratory Animals, Eighth Edition (2011).
The mice were anesthetized with an oxygen–air mixture containing 3% isoflurane at a gas flow rate of 1.5–2 L/min. A bolus dose (bolus volume: 20 μL) of compound 6 (0.3 mg/kg, 0.6 mg/kg, or 1.2 mg/kg), DMSO (solvent control; 1.1 g/kg), or aspirin (20 mg/kg; positive control) was intravenously administered through the tail vein before the administering sodium fluorescein (15 mg/kg). The small intestinal segments were placed on a transparent culture dish, and the mesenteric vessels were observed under a microscope. Venules (20–30 μm) were selected and irradiated with light (wavelength <520 nm) to induce endothelial damage, causing thrombus formation and subsequent vessel occlusion. The time required to occlude a microvessel was recorded ([Lin et al., 2013]). A formula for dose translation based on the […] was used to calculate the appropriate dose for use in the mice ([Reagan-Shaw et al., 2008]). [Reagan-Shaw et al. (2008)] reported that the animal dose should not be extrapolated to a human equivalent dose (HED) by a simple conversion based on body weight. […] The formula for dose translation based on BSA is as follows: HED (mg/kg) = Animal dose (mg/kg) multiply by Animal Km/Human Km. Mouse Km is 3 and Human Km is 37.
FIGURE 3 Effects of compound 6 on thrombosis and hemostasis in mice. Mice were treated with compound 6 (0.3, 0.6, or 1.2 mg/kg), DMSO (solvent control), or aspirin (20 mg/kg; positive control) via intravenous route for 10 min. (A) The microthrombus formation (arrows) in mesenteric venules. Scale bar = 30 μm. […] Each point on the plot indicates a mouse (n = 6). Data (A,B) are presented as means ± SEM (n = 6). *p < 0.05 and ***p < 0.001 compared with the DMSO group.

In assay [3] the test system is collagen-triggered calcium mobilization in human platelets. Briefly: Calcium mobilization in human platelet suspensions (Fura-2 AM). It is filed as cell-based. As to conditions: 2.5 and 5 μM, collagen 1 μg/mL, n = 4. Here is the method:
Adenosine triphosphate (ATP) release and calcium mobilization were assessed as previously described ([Shih et al., 2021]). Luciferase–luciferin and Fura-2 AM were used to detect ATP release and calcium mobilization, respectively. The intensity of luminescence (indicating ATP release) and the fluorescence ratio (340 nm/380 nm) for calcium mobilization were measured using a Hitachi Spectrometer F-7000 (Tokyo, Japan) following the manufacturer’s instructions.
FIGURE 8 Effects of compound 6 on ATP release, calcium mobilization, and GPIIb–IIIa activation triggered by collagen in human platelets. Washed platelets (3.6 × 10^8 cells/mL) were treated with compound 6 (C6, 2.5 and 5 μM) or DMSO and then stimulated with collagen (1 μg/mL) to trigger ATP release (A), calcium mobilization (B), and GPIIb–IIIa activation (C) that were detected using luciferase/luciferin, Fura-2 AM, and APC–PAC1 antibodies, respectively. Data (A–C) are presented as means ± SEM (n = 4). **p < 0.01 and ***p < 0.001 compared with the resting group. #p < 0.05, ##p < 0.01, and ###p < 0.001 compared with the DMSO (solvent control) group.
In general terms: Calcium assays in cells follow changes in intracellular calcium, usually with a dye or a luminescent sensor.

Turning to `CCCCN1C(=O)c2cccc3c(NCCNC(=O)C45CC6CC(CC(C6)C4)C5)ccc(c23)C1=O` [compound 6], the “Collagen-induced phosphorylation of Akt and MAPKs (ERK, p38 MAPK, JNK)” value in assay [1] (5 μM, n = 4) is listed as “could be diminished”. Besides, the “Collagen-induced Lyn and Fyn phosphorylation” value in assay [1] (2.5 and 5 μM, n = 5) is listed as “could be reversed”. Besides, the “Collagen-induced phosphorylation of PLCγ2 and the substrate of PKC (p47 proteins)” value in assay [1] (2.5 and 5 μM, n = 5) was “significantly reduced”. Moreover, the Occlusion time in assay [2] (0.3 mg/kg i.v.) is given as 211.5 ± 15.8 s; in assay [2] (0.6 mg/kg i.v.), 333.5 ± 45.6 s; in assay [2] (1.2 mg/kg i.v.), 451.5 ± 27.4 s. Also, the Calcium mobilization entry in assay [3] is “significantly reduce”.

Values taken from paper PMC12234328, “A naphthalimide derivative exerts potent antiplatelet and antithrombotic activities without a bleeding tendency” (Frontiers in Pharmacology, 2025).
